Assay results from patent US7504517B2, “Kv1.5 potassium channel inhibitors” (Wyeth, priority 2006, dated 2009).

Legend:
L-type calcium channels = assay: FLIPR L-Type Calcium Channel Assay; format: cell-based, murine; conditions: HL-1 cells expressing endogenous L-type calcium channels; calcium influx after 20 mM KCl; read-out: L-type Ca^2+ IC50
Method in brief: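 After a 15 min compound pre-incubation at 37 °C with 2.5 mM probenecid, L-type channels were opened by depolarising with 20 mM KCl (final). Fluorescence (488 nm excitation, 510–570 nm emission) was read for 5 min.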

Kv1.5 = target: T1, Kv1.5 (Homo sapiens, UniProt P22460); assay: Kv1.5 Patch Clamp EP; format: cell-based; conditions: 1.0 μM, single point; whole cell patch clamp, Kv1.5 stably over expressed in HEK or LTK- cells
T1 construct: expressed in transfected cells; host or cells: HEK or LTK- cells
Protocol: The external solution is standard Tyrodes solution. […] Inhibition was measured at the end of the 1 second pulses and expressed relative to controls. Initial Kv1.5 inhibition is estimated by single point determinations done at 1 μM.

HERG [1] = target: T2, HERG (Homo sapiens, UniProt Q12809)
HERG [2] = target: T2, HERG; assay: HERG Patch Clamp EP; conditions: human, HEK cells stably overexpressing HERG

T1 sequence (P22460 whole entry): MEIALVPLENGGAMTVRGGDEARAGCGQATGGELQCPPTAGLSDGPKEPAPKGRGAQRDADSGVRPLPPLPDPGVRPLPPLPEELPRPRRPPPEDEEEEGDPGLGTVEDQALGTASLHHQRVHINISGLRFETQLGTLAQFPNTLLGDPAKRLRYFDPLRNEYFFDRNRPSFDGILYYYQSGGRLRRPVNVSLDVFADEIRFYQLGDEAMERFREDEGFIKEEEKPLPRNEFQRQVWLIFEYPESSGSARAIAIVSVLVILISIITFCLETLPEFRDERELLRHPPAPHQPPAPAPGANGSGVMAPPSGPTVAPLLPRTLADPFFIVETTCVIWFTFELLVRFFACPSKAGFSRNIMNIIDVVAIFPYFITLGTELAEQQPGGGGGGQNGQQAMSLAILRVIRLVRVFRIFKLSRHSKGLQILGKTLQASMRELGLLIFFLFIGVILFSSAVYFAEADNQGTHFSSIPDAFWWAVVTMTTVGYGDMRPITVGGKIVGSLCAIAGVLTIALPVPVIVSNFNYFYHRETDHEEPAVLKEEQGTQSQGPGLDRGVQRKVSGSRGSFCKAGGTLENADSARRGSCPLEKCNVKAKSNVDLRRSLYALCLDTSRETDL
T2 sequence (Q12809 whole entry): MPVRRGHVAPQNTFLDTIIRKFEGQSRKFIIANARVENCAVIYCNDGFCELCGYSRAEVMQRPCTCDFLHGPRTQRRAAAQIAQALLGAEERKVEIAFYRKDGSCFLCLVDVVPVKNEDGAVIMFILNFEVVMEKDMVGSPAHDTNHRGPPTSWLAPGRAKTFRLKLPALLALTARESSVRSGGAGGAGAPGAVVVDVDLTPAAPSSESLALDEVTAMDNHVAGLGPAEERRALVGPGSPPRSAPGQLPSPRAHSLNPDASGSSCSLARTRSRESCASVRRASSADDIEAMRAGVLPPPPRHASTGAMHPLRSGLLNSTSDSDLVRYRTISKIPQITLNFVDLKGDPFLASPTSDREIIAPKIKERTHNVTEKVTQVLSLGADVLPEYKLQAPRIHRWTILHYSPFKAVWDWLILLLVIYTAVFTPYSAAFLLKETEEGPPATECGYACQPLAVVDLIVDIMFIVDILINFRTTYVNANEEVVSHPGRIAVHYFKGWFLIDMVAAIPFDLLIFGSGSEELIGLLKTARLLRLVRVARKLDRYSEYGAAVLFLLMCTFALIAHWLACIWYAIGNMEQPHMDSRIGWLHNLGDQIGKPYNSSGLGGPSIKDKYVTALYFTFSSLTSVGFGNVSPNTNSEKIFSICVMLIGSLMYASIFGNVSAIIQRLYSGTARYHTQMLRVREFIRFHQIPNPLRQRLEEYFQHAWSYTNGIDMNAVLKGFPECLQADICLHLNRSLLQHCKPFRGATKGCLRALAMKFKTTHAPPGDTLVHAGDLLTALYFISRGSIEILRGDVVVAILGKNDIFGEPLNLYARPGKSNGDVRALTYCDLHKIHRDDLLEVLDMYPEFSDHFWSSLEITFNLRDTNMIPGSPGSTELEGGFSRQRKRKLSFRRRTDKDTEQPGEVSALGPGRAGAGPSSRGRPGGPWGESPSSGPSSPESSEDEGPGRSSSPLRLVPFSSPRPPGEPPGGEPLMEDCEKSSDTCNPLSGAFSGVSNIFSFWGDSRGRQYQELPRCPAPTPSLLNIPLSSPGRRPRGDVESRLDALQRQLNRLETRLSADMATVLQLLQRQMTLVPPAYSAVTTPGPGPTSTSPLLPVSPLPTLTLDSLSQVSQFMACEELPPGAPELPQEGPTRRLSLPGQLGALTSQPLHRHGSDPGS

Row | IC50 (L-type calcium channels) [µM] | Kv1.5% inhibition @ 1.0 μM (Kv1.5) [%] | inhibition at 1 µM (Kv1.5) [%] | Compound | HERG % Inhib. @ 10 μM (HERG [1]) [%] | inhibition at 10 µM (HERG [2]) [%]
1 | 20 | 77 | – | 1-(Methoxycarbonylamino)-3-[2-(4-methoxyphenyl)ethyl]-4-[4-(tert-butyl)phenyl]-2-imidazolidinone [Compound 80] | 51 | –
2 | 35 | – | 85 | C=CS(=O)(=O)NN1CC(c2ccc3c(c2)OCCO3)N(CCc2ccc(OC)cc2)C1=O (stereo not drawn) [Compound 33, 1-(Vinylsulfonylamino)-3-[2-(4-methoxyphenyl)ethyl]-4-[(2,3-dihydrobenzo-[1,4]dioxin-6-yl)]-2-imidazolidinone] | – | 20
3 | 28 | – | 84 | CCN(CC)c1ccc(C2CN(NS(C)(=O)=O)C(=O)N2CCc2ccc(OC)cc2)cc1 (stereo not drawn) [Compound 25, 1-(Methylsulfonylamino)-3-[2-(4-methoxyphenyl)ethyl]-4-[(4-diethylamino)-phenyl]-2-imidazolidinone] | – | 31
4 | 5.6 | – | 85 | COc1ccc(CCN2C(=O)N(NS(=O)(=O)CC(F)(F)F)CC2c2ccc(C(C)(C)C)cc2)cc1 (stereo not drawn) [Compound 38, 1-(2,2,2-Trifluoroethanesulfonylamino)-4-[4-(tert-butyl)phenyl]-3-[2-(4-methoxyphenyl)ethyl]-2-imidazolidinone] | – | 56
5 | 14.6 | – | 94 | COc1ccc(CCN2C(=O)N(NS(C)(=O)=O)C[C@@H]2c2ccc(C(C)(C)C)cc2)cc1 [Compound 173, N-{(4S)-4-(4-tert-butylphenyl)-3-[2-(4-methoxyphenyl)ethyl]-2-oxoimidazolidin-1-yl}methanesulfonamide] | – | 48
